Laboratory results: patent publication US5043450A, “8-alkoxyquinolonecarboxylic acid and salts thereof” (priority 1986, dated 1991)

Assays:
Assay type in all cases: cell-based
S. pyogenes IID 692 = experiment: Antibacterial spectra, MIC; settings: Streptococcus pyogenes, IID692
[1] = system: Enterobacter cloacae IID 977; experiment: Antibacterial spectra, MIC; settings: IID977
[2] = system: Clostridium difficile I-E; experiment: Antibacterial spectra, MIC; settings: Clostridioides difficile
[3] = system: Acinetobacter anitratus IID 876; experiment: Antibacterial spectra, MIC; settings: Acinetobacter calcoaceticus, IID876
P. aeruginosa IFO 12689 = experiment: Antibacterial spectra, MIC; settings: Pseudomonas aeruginosa, IFO12689
F. varium KYA 8501 = experiment: Antibacterial spectra, MIC; settings: Fusobacterium varium, KYA8501; 10^6 cells/ml; Gram -; read-out: MIC
C. perfringens KYA 13123 = experiment: microbe, parasite or virus in culture; settings: Clostridium perfringens, KYA13123
[4] = system: Salmonella enteritidis IID 604; experiment: Antibacterial spectra, MIC; settings: Salmonella enterica
Bacilus subtilis PCI 219 = experiment: Antibacterial spectra, MIC; settings: Bacillus subtilis, PCI219
S. epidermidis IID 866 = experiment: Antibacterial spectra, MIC; settings: Staphylococcus epidermidis, IID866
P. aeruginosa IID 1210 = experiment: Antibacterial spectra, MIC; settings: Pseudomonas aeruginosa, IID1210
B. fragilis 0558 = experiment: Antibacterial spectra, MIC; settings: Bacteroides fragilis
[5] = system: Morganella morganii IID 602; experiment: Antibacterial spectra, MIC; settings: IID602
[6] = system: Serratia marcescens IID 618; experiment: Antibacterial spectra, MIC; settings: IID618
C. ramosum = experiment: Antibacterial spectra, MIC; settings: Thomasclavelia ramosa
[7] = system: Eubacterium lentum GAI 5242; experiment: Antibacterial spectra, MIC; settings: Eggerthella lenta, GAI5242
E. coli ATCC 10536 = experiment: Antibacterial spectra, MIC; settings: Escherichia coli, ATCC10536
[8] = system: Alcaligenes faecalis 0114002; experiment: Antibacterial spectra, MIC
F. necrophorum S-45 = experiment: Antibacterial spectra, MIC; settings: Fusobacterium necrophorum, S45
[9] = system: B. thetaiotaomicron (0661); experiment: Antibacterial spectra, MIC; settings: Bacteroides thetaiotaomicron
[10] = system: Staphylococcus aureus 209 P; experiment: Antibacterial spectra, MIC
B. fragilis 25285 = experiment: Antibacterial spectra, MIC; settings: Bacteroides fragilis
[11] = system: Bacteroides fragilis GM 7000; experiment: Antibacterial spectra, MIC; settings: GM7000
P. cepacia GIFU 518 = experiment: Antibacterial spectra, MIC; settings: Burkholderia cepacia, GIFU518
[12] = system: Peptococcus magnus KY 017; experiment: Antibacterial spectra, MIC; settings: Finegoldia magna, KY017
[13] = system: Yersinia enterocolitica IID 981; experiment: Antibacterial spectra, MIC; settings: IID981
[14] = system: Peptostreptococcus anaerobius KYA 27337; experiment: Antibacterial spectra, MIC; settings: KYA27337
K. pneumoniae 1-220S = experiment: Antibacterial spectra, MIC; settings: Klebsiella pneumoniae, 1220S
Pst. micros UPI 5464-1 = experiment: Antibacterial spectra, MIC; settings: Parvimonas micra, UPI54641
[15] = system: Klebsiella pneumoniae KY(GN)6445; experiment: Antibacterial spectra, MIC
[16] = system: Citrobacter freundii IID 976; experiment: Antibacterial spectra, MIC; settings: IID976
S. aureus Smith = experiment: Antibacterial spectra, MIC; settings: Staphylococcus aureus
P. maltophilia GIFU 2491 = experiment: Antibacterial spectra, MIC; settings: Stenotrophomonas maltophilia, GIFU2491
S. pneumoniae IID 552 = experiment: Antibacterial spectra, MIC; settings: Streptococcus pneumoniae, IID552
[17] = system: Escherichia coli NIHJ JC-2; experiment: Antibacterial spectra, MIC; settings: NIHJJC2
B. vulgatus KYA 29327 = experiment: Antibacterial spectra, MIC; settings: Phocaeicola vulgatus, KYA29327
B. distasonis 8503 = experiment: Antibacterial spectra, MIC; settings: Parabacteroides distasonis
[18] = system: S. aureus IID 670 (Terajima); experiment: Antibacterial spectra, MIC; settings: Staphylococcus aureus, IID670
[19] = system: Propionibacterium acens 11828; experiment: Antibacterial spectra, MIC; settings: 10^6 cells/ml, Gram +, read-out: MIC
Shigella sonnei IID 969 = experiment: Antibacterial spectra, MIC; settings: IID969, 10^6 cells/ml, Gram -
Procedure: (§1) The antibacterial test was carried out according to the method designated by Japan Society of Chemotherapy.

[20] = system: Streptococcus pyogenes (S-8); experiment: Antibacterial spectra, MIC; settings: 10^6 cells/ml, Gram +
Procedure: as §1

[21] = system: Proteus vulgaris IFO 3167; experiment: Antibacterial spectra, MIC; settings: IFO3167, 10^6 cells/ml, Gram -
Procedure: as §1

E. faecalis IID 682 = experiment: Antibacterial spectra, MIC; settings: Enterococcus faecalis, IID682; 10^6 cells/ml; Gram +
Procedure: as §1

E. coli ML 4707 = experiment: Antibacterial spectra, MIC; settings: Escherichia coli, ML4707; 10^6 cells/ml; Gram -
Procedure: as §1

[22] = system: Pseudomonas aeruginosa V-1; experiment: Antibacterial spectra, MIC; settings: V1
[23] = system: Veillonella parvula KYA 10790; experiment: Antibacterial spectra, MIC; settings: KYA10790
[24] = system: Fusobacterium mortiferum 4249; experiment: Antibacterial spectra, MIC
P. mirabilis IID 994 = experiment: Antibacterial spectra, MIC; settings: Proteus mirabilis, IID994

Measured: MIC

COc1c(N2CCC(N)C2)c(F)cc2c(=O)c(C(=O)O)cn(C3CC3)c12 (stereo not drawn) [Exp. 4, 7-(3-amino-1-pyrrolidinyl)-1-cyclopropyl-6-fluoro-1,4-dihydro-8-methoxy-4-oxo-3-quinolinecarboxylic acid]
0.39 µg/mL: [2] | P. aeruginosa IFO 12689 | P. aeruginosa IID 1210 | [8] | P. cepacia GIFU 518 | B. vulgatus KYA 29327 | [22]
0.0125 µg/mL: [17]
0.78 µg/mL: C. ramosum | B. distasonis 8503
1.56 µg/mL: F. varium KYA 8501 | [19]
0.2 µg/mL: C. perfringens KYA 13123 | F. necrophorum S-45 | [9] | [11] | [14] | Pst. micros UPI 5464-1 | [23] | [24]
0.025 µg/mL: Bacilus subtilis PCI 219 | E. coli ATCC 10536 | Shigella sonnei IID 969 | [21] | E. coli ML 4707
0.1 µg/mL: S. pyogenes IID 692 | S. epidermidis IID 866 | B. fragilis 0558 | [7] | B. fragilis 25285 | [12] | P. maltophilia GIFU 2491 | S. pneumoniae IID 552 | E. faecalis IID 682
0.05 µg/mL: all other assays above
